Assay: PRMT5 assay: Compounds were solubilized in DMSO and serially diluted, using 3-fold dilutions, into 100% DMSO at a concentration 50-fold greater than the desired assay concentration. Following dilution, 1 ul was added to an empty 96-well microtiter plate. PRMT5/MEP50 protein complex was combined with H4(1-21) peptide ([…]) in PRMT5 assay buffer (50 mM Tris pH 8.5, 50 mM NaCl, 5 mM MgCl2, 1 mM EDTA, 1 mM TCEP) and 44 ul was added to the microtiter plate containing compound. S-Adenosyl-L-methionine (SAM) was prepared by combining 3H labelled SAM with unlabelled SAM in PRMT5 assay buffer such that the final SAM concentration was 10 uM and the specific activity was 0.2 uCi/ul. The reaction was initiated by adding 5 ul of SAM stock to the microtiter plate. The final reaction conditions were 10 nM PRMT5/MEP50 complex, 200 nM peptide and 1 uM SAM. Following a 25 minute incubation at room temperature, the reaction was stopped with the addition of 100 uL of 20% TCA. The 3H-peptide product was captured using a 96-well filter plate (MSIPN4B, Millipore) and washed 5 times with PBS buffer. Scintillation fluid (100 ul) was added to the dried filter plate and counted in a liquid scintillation counter. IC50 values were determined by fitting the data to the standard 4-parameter dose response equation using Pfizer proprietary software.

Cc1ncnc2c1ccn2[C@@H]1O[C@@H](C(C)O)[C@H]2OC(C)(C)O[C@H]21 (some centres undefined)
IC50: 1.73 µM

Cc1ncnc2c1ccn2[C@@H]1O[C@H]([C@H](O)c2ccc3ccn(C)c3c2)[C@@H](O)[C@H]1O
IC50: 0.01 µM

Cc1ncnc2c1ccn2[C@@H]1O[C@@H](C(C)(C)O)[C@H]2OC(C)(C)O[C@H]21
IC50: 3.24 µM

Cc1ncnc2c1ccn2[C@@H]1O[C@H]([C@@H](O)c2cccc(F)c2)[C@@H](O)[C@H]1O
IC50: 2.64 µM
